From patent US20170119776A1, “CHIRAL 2,5-DISUBSTITUTED CYCLOPENTANECARBOXYLIC ACID DERIVATIVES AND USE THEREOF” (BAYER PHARMA AKTIENGESELLSCHAFT, priority 2014, published 2017)

How the values were obtained:
Type in all cases: biochemical
[1] = biological target: T1, MMP-2 (Homo sapiens, UniProt P08253); experiment: In vitro MMP-2 inhibition test
T1 construct: purchased R&D Systems 902-MP
T1 sequence (P08253 110-660): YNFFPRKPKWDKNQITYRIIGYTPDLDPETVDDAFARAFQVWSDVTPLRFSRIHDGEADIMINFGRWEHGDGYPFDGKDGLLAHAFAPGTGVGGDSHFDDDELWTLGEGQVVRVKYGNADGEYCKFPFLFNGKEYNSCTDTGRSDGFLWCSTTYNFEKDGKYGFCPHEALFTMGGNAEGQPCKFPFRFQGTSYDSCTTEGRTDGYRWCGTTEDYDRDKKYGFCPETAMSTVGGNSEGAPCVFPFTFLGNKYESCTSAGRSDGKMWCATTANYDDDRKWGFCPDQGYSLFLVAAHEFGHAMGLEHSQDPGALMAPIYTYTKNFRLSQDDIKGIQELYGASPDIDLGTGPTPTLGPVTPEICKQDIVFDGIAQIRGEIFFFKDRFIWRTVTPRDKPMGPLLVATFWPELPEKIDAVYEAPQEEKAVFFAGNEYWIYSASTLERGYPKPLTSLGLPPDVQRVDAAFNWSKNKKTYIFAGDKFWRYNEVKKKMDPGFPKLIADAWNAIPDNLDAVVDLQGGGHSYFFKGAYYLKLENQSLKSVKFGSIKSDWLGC
From the text: (§1) The activity strength of the compounds according to the invention towards other MMPs (and therefore their selectivity) is likewise ascertained in in vitro inhibition tests. The MMP-mediated amidolytic cleavage of a suitable peptide substrate also leads here to a fluorescent light increase. The signal intensity of the fluorescent light is directly proportional to the enzyme activity. The active concentration of a test compound at which half of the enzyme is inhibited (50% signal intensity of the fluorescent light) is given as IC50 value.
Recombinant MMP-2 (R&D Systems, 902-MP) is chemically activated in accordance with the manufacturer's instructions using APMA. 1 μl of the test compound to be analysed (as a solution in DMSO, suitable concentrations e.g. 1 nM to 30 μM) is pipetted into 24 μl of activated enzyme (final concentration e.g. 2 nM) in reaction buffer (50 mM Tris/HCl pH 7.5, 10 mM CaCl2, 150 mM NaCl, 0.05% Brij®-35) in a white 384-hole microtiter plate (MTP). The enzymatic reaction is started by adding the intramolecularly quenched substrate Mca-Pro-Leu-Gly-Leu-Dpa(Dnp)-Ala-Arg-NH2 (final concentration e.g. 10 μM; R&D Systems, ES-001), such that a total test volume of 50 μl results. The progress of the MMP-2 reaction is measured by measuring the fluorescence intensity (excitation 320 nm, emission 410 nm) over a suitable period (e.g. over 120 min at a temperature of 32° C.).
(§2) The IC50 values were determined for racemates and enantiomers from differently generated DMSO stock solutions. Whereas an automatically produced DMSO stock solution from the internal substance logistics was used for racemates by means of a standard method, in the case of enantiomers a freshly produced, manually prepared DMSO stock solution was used in each case for a more precise direct comparison of the enantiomers with one another.

[2] = biological target: T2, MMP-16 (Homo sapiens, UniProt P51512); experiment: In vitro MMP-16 inhibition test
T2 construct: purchased R&D Systems 1785-MP
From the text: as §1
Recombinant MMP-16 (R&D Systems, 1785-MP) is enzymatically activated in accordance with the manufacturer's instructions using recombinant furin (R&D Systems, 1503-SE). 1 μl of the test compound to be analysed (as a solution in DMSO, suitable concentrations e.g. 1 nM to 30 μM) is pipette into 24 μl of activated enzyme (final concentration e.g. 1 nM) in reaction buffer (50 mM Tris/HCl pH 7.5, 10 mM CaCl2, 150 mM NaCl, 0.05% Brij®-35) in a white 384-hole microtiter plate (MTP). The enzymatic reaction is started by adding the intramolecularly quenched substrate Mca-Lys-Pro-Leu-Gly-Leu-Dpa(Dnp)-Ala-Arg-NH2 (final concentration e.g. 5 μM; R&D Systems, ES-010), such that a total test volume of 50 μl results. The progress of the MMP-16 reaction is measured by measuring the fluorescence intensity (excitation 320 nm, emission 410 nm) over a suitable period (e.g. over 120 min at a temperature of 32° C.).
as §2

[3] = biological target: MMP-2 of the rat; experiment: In vitro MMP-2 inhibition test of the rat
From the text: as §1
Recombinant MMP-2 of the rat (R&D Systems, 924-MP) is chemically activated in accordance with the manufacturer's instructions using APMA. […] of the test compound to be analysed (as a solution in DMSO, suitable concentrations e.g. 1 nM to 30 μM) is pipetted into 24 μl of activated enzyme (final concentration e.g. 1 nM) in reaction buffer (50 mM Tris/HCl pH 7.5, 10 mM CaCl2, 150 mM NaCl, 0.05% Brij®-35) in a white 384-hole microtiter plate (MTP). The enzymatic reaction is started by adding the intramolecularly quenched substrate Mca-Pro-Leu-Gly-Leu-Dpa(Dnp)-Ala-Arg-NH2 (final concentration e.g. 10 μM; R&D Systems, ES-001), such that a total test volume of 50 μl results. The progress of the MMP-2 reaction is measured by measuring the fluorescence intensity (excitation 320 nm, emission 410 nm) over a suitable period (e.g. over 120 min at a temperature of 32° C.).
Tables 3A and 3B below give the IC50 values from these tests for the inhibition of rodent MMPs for representative embodiment examples of the present invention and also for two structurally related comparison compounds from the prior art (as racemate and separated enantiomer)→(in part as average values from several independent individual determinations and rounded to two significant places). The IC50 values were determined for racemates and enantiomers from differently generated DMSO stock solutions. Whereas an automatically created DMSO stock solution from the internal substance logistics was used for racemates by means of a standard method, in the case of enantiomers, in each case a freshly produced, manually prepared DMSO stock solution was used for a more precise direct comparison of the enantiomers with one another.

[4] = biological target: T3, MMP-9 of the rat (Rattus norvegicus, UniProt P50282); experiment: In vitro MMP-9 inhibition test of the rat
T3 construct: purchased R&D Systems 5427-MM
T3 sequence (P50282 108-708): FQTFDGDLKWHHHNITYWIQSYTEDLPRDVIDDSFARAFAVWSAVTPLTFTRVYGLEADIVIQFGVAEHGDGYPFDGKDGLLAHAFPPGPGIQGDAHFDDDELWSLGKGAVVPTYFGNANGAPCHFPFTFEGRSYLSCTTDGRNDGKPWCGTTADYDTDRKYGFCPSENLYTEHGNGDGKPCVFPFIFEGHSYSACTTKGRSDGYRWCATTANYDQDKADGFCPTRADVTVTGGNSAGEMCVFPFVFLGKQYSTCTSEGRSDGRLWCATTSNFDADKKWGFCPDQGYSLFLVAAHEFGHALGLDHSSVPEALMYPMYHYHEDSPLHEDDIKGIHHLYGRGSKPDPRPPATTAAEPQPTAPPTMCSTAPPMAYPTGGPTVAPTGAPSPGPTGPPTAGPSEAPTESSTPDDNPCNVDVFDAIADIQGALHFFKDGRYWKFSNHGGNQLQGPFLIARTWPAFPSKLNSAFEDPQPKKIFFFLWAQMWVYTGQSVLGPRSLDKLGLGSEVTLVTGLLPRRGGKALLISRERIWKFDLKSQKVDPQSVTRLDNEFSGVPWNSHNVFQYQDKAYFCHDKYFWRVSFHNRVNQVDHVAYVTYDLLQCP

T2 sequence (P51512 120-607): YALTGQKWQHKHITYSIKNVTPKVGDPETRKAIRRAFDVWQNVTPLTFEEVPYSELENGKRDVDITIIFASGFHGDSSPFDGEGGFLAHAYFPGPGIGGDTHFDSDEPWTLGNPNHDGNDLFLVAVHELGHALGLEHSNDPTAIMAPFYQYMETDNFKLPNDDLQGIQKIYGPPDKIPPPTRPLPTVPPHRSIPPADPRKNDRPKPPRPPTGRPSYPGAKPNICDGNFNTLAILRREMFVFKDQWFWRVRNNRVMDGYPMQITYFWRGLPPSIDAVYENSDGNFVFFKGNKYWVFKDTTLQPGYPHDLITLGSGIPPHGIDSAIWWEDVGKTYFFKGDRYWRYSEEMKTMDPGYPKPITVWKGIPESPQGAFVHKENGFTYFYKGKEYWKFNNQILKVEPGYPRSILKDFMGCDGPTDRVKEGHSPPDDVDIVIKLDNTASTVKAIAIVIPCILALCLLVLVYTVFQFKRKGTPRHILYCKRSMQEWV

Row | IC50 [1] [nM] | IC50 [2] [nM] | IC50 [3] [nM] | IC50 [4] [nM] | SMILES
1 | 1.1 | 16 | 1.3 | 4.6 | O=C(O)[C@H]1[C@H](Cn2nnc3ccccc3c2=O)CC[C@@H]1C(=O)c1ccc(-c2ccc(Cl)cc2)cc1 (racemic) [Comparative Example A-1, (1RS,2RS,5SR)-2-[(4′-chlorobiphenyl-4-yl)carbonyl]-5-[(4-oxo-1,2,3-benzotriazin-3(4H)-yl)methyl]cyclopentanecarboxylic acid (racemate)]
2 | 450 | 22000 | 610 | 3200 | CCCCCOc1ccc(C(=O)CC(CCn2nnc3ccccc3c2=O)C(=O)O)cc1 (racemic) [Comparative Example B-1, (+/−)-4-Oxo-2-[2-(4-oxo-1,2,3-benzotriazin-3(4H)-yl)ethyl]-4-[4-(pentyloxy)phenyl]butanoic acid (racemate)]
3 | 18 | 130 | 33 | 110 | O=C(O)[C@H]1[C@H](Cn2nnc3ccccc3c2=O)CC[C@@H]1C(=O)c1ccc(OCc2ccccc2)cc1 (racemic) [Example 1, (+/−)-(1RS,2RS,5SR)-2-[4-(Benzyloxy)benzoyl]-5-[(4-oxo-1,2,3-benzotriazin-3(4H)-yl)methyl]cyclopentanecarboxylic acid (racemate)]
4 | 120 | 6700 | 145 | 1350 | CCCCCOc1ccc(C(=O)CC(CCn2nnc3ccccc3c2=O)C(=O)O)cc1 (single isomer, unassigned; enantiomer 1) [Comparative Example B-2, (+)-4-Oxo-2-[2-(4-oxo-1,2,3-benzotriazin-3(4H)-yl)ethyl]-4-[4-(pentyloxy)phenyl]butanoic acid (enantiomer 1)]
5 | 11.8 | 78.5 | 16.5 | 46.5 | O=C(O)[C@H]1[C@H](Cn2nnc3ccccc3c2=O)CC[C@@H]1C(=O)c1ccc(OCc2ccccc2)cc1 [Example 2, (+)-(1S,2S,5R)-2-[4-(Benzyloxy)benzoyl]-5-[(4-oxo-1,2,3-benzotriazin-3(4H)-yl)methyl]cyclopentanecarboxylic acid]
6 | 0.7 | 5.2 | < 0.61 | 3.3 | O=C(O)[C@@H]1[C@@H](Cn2nnc3ccccc3c2=O)CC[C@H]1C(=O)c1ccc(-c2ccc(Cl)cc2)cc1 (single isomer, unassigned; enantiomer 2) [Comparative Example A-3, (1RS,2RS,5SR)-2-[(4′-Chlorobiphenyl-4-yl)carbonyl]-5-[(4-oxo-1,2,3-benzotriazin-3(4H)-yl)methyl]cyclopentanecarboxylic acid (enantiomer 2)]
